pIC50: −log10 of the molar value.

For this assay, the system named is T1, PIM-1 or PIM-2.
T1 construct: fused on or other part: C-terminal histidine tag (PIM-1 enzyme); N-terminal histidine tag (PIM-2 enzyme)
As to the kind of experiment: PIM-1 / PIM-2 biochemical assay (ADP Hunter assay kit). More on the design: species or system human. Conditions: tested in either the PIM-1 or the PIM-2 biochemical assay (as appropriate); ATP 100 μM.
From the text: The biochemical assay to measure PIM-1 activity relies on the ADP Hunter assay kit (DiscoveRx Corp., Cat. # 90-0077), that determines the amount of ADP as direct product of the kinase enzyme activity.
The enzyme has been expressed and purified in-house as a recombinant human protein with a C-terminal histidine tag. The protein is active and stable.
(§1) Assay conditions were as indicated by the kit manufacturers with the following adaptations for the kinase activity step: • Kinase assay buffer and assay volume stay as recommended (15 mM HEPES, pH 7.4, 20 mM NaCl, 1 mM EGTA, 0.02% Tween 20, 10 mM MgCl2 and 0.1 mg/ml bovine γ-globulins/75 μl assay volume) • Incubation time and temperature: 60 min at 30° C. • PIM-1 concentration: 50 pg/μl • ATP concentration: 100 μM • PIM-1 substrate peptide: PIMtide (ARKRRRHPSGPPTA) • Peptide concentration: 60 μM • Positive control for kinase activity inhibition: 1-10 μM Staurosporine • DMSO concentration have to stay below 2% during the kinase reaction
Assays were performed in either 96 or 384-well plates. The final outcome of the coupled reactions provided by the kit is the release of the fluorescent product Resorufin and has been measured with a multilabel HTS counter VICTOR V (PerkinElmer) using an excitation filter at 544 nm and an emission filter at 580 nm.
The biochemical assay to measure PIM-2 activity relies on the ADP Hunter assay kit (DiscoveRx Corp., Cat. # 90-0077), that determines the amount of ADP as direct product of the kinase enzyme activity.
The enzyme has been expressed and purified in-house as a recombinant human protein with a N-terminal histidine tag. The protein is active and stable.
as §1, with “mg/ml bovine γ-globulins/20 μl assay” for “mg/ml bovine γ-globulins/75 μl assay”, “and temperature: 30 min at” for “and temperature: 60 min at”, “C. • PIM-2 concentration: 350” for “C. • PIM-1 concentration: 50”, “PIM-2 concentration: 350 pg/μl •” for “PIM-1 concentration: 50 pg/μl •”, “Peptide concentration: 100 μM •” for “Peptide concentration: 60 μM •”
Molecule `O=C(Nc1ccccc1)c1cnc2cc(C3CCCC3)c(NCc3ccc(F)cc3)nn12` [Example 68, 7-Cyclopentyl-6-(4-fluoro-benzylamino)-imidazo[1,2-b]pyridazine-3-carboxylic acid phenylamide] showed a negative logarithm of the IC50 (pIC50) of 7.10.

Molecule `COc1ccc(CNc2nn3c(C(=O)Nc4ccccc4)cnc3cc2C2CCCC2)cc1` [Example 69, 7-Cyclopentyl-6-(4-methoxy-benzylamino)-imidazo[1,2-b]pyridazine-3-carboxylic acid phenylamide] had a pIC50 of 6.72.

On to `Cc1cc2ncc(C#Cc3ccccc3)n2nc1NCc1ccc(Cl)c(Cl)c1` [Example 70, (3,4-Dichloro-benzyl)-(7-methyl-3-phenylethynyl-imidazo[1,2-b]pyridazin-6-yl)-amine], for which the pIC50 was 5.65.

Molecule `Cc1cc(NCc2ccc(Cl)c(Cl)c2)nn2c(C#Cc3ccccc3)cnc12` [Example 71, (3,4-Dichloro-benzyl)-(8-methyl-3-phenylethynyl-imidazo[1,2-b]pyridazin-6-yl)-amine] showed a pIC50 of 5.28.

Molecule `Clc1ccc(CNc2ccc3ncc(C#CCc4ccccc4)n3n2)cc1Cl` [Example 73, N-(3,4-dichlorobenzyl)-3-(3-phenylprop-1-ynyl)imidazo[1,2-b]pyridazin-6-amine] showed a pIC50 of 5.55.

Take `Cc1nc2ccc(NCc3ccc(F)cc3)nn2c1C(=O)Nc1ccccc1` [Example 80, 6-(4-Fluoro-benzylamino)-2-methyl-imidazo[1,2-b]pyridazine-3-carboxylic acid phenylamide]: the pIC50 was 5.34.

In the case of `COc1ccc(CNc2ccc3nc(C)c(C(=O)Nc4ccccc4)n3n2)cc1` [Example 81, 6-(4-Methoxy-benzylamino)-2-methyl-imidazo[1,2-b]pyridazine-3-carboxylic acid phenylamide], the negative-log IC50 (pIC50) is 5.05.

As to `O=C(Nc1cnc2ccc(-c3ccccc3)nn12)c1ccccc1` [Example 84, N-(6-Phenyl-imidazo[1,2-b]pyridazin-3-yl)-benzamide], the pIC50 is 5.28.

For the molecule `CCS(=O)(=O)Nc1cnc2ccc(-c3ccccc3)nn12` [Example 85, Ethanesulfonic acid (6-phenyl-imidazo[1,2-b]pyridazin-3-yl)-amide], the pIC50 was 4.76.

Take `O=S(=O)(Nc1cnc2ccc(-c3ccccc3)nn12)c1ccccc1` [Example 86, N-(6-Phenyl-imidazo[1,2-b]pyridazin-3-yl)-benzenesulfonamide]: the pIC50 was 4.84.

`CCC(=O)Nc1cnc2ccc(NCc3ccc(F)cc3)nn12` [Example 89, N-[6-(4-Fluoro-benzylamino)-imidazo[1,2-b]pyridazin-3-yl]-propionamide] had a pIC50 of 4.72.

`O=C(Nc1cnc2ccc(NCc3ccc(F)cc3)nn12)c1ccccc1` [Example 90, N-[6-(4-Fluoro-benzylamino)-imidazo[1,2-b]pyridazin-3-yl]-benzamide] gave a pIC50 of 5.94.

In the case of `COc1ccc(C(=O)Nc2cnc3ccc(NCc4ccc(F)cc4)nn23)cc1` [Example 91, N-[6-(4-Fluoro-benzylamino)-imidazo[1,2-b]pyridazin-3-yl]-4-methoxy-benzamide], the pIC50 is 6.51.

In turn, `O=C(Nc1cnc2ccc(Oc3ccccc3)nn12)c1ccccc1` [Example 98, N-(6-Phenoxy-imidazo[1,2-b]pyridazin-3-yl)-benzamide] had a negative logarithm of the IC50 (pIC50) of 5.33.

As for `COc1ccc(C(=O)Nc2cnc3ccc(-n4ccnc4)nn23)cc1` [Example 100, N-(6-Imidazol-1-yl-imidazo[1,2-b]pyridazin-3-yl)-4-methoxy-benzamide], the pIC50 was 4.72.

Molecule `O=C(Nc1cnc2ccc(NCc3ccc(F)cc3)nn12)c1ccc(O)cc1` [Example 101, N-[6-(4-Fluoro-benzylamino)-imidazo[1,2-b]pyridazin-3-yl]-4-hydroxy-benzamide] showed a pIC50 of 6.39.

On to `O=C(Nc1cnc2ccc(NCc3ccc(F)cc3)nn12)c1cccc(O)c1` [Example 102, N-[6-(4-Fluoro-benzylamino)-imidazo[1,2-b]pyridazin-3-yl]-3-hydroxy-benzamide], for which the pIC50 is 5.65.

Turning to `O=C(Nc1cnc2ccc(-n3ccnc3)nn12)c1ccc(O)cc1` [Example 103, 4-Hydroxy-N-(6-imidazol-1-yl-imidazo[1,2-b]pyridazin-3-yl)-benzamide], the pIC50 was 4.84.

These data come from patent US20110046127A1, “Imidazopyridazines for Use as Protein Kinase Inhibitors” (priority 2007, published 2011).
